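48-hour exposure; five concentrations; linearly interpolated endpoints. GI50 marks 50% less growth. TGI: concentration producing complete growth inhibition.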
Experiments:
Assay in all cases: DTP human tumour cell line panel, 48 h
MOLT-4 leukemia = system: MOLT-4 leukemia
SF-295 CNS = system: SF-295 CNS
BT-549 breast = system: BT-549 breast
786-0 renal = system: 786-0 renal
KM12 colon = system: KM12 colon
NCI-H226 lung = system: NCI-H226 lung
IGROV1 ovarian = system: IGROV1 ovarian
EKVX NSCLC = system: EKVX NSCLC
HT29 colon = system: HT29 colon
RXF 393 renal = system: RXF 393 renal
SNB-75 CNS = system: SNB-75 CNS
SF-539 CNS = system: SF-539 CNS
SW-620 colon = system: SW-620 colon
MDA-MB-435 = system: MDA-MB-435
OVCAR-5 ovarian = system: OVCAR-5 ovarian
M14 melanoma = system: M14 melanoma
MCF7 breast = system: MCF7 breast
MALME-3M melanoma = system: MALME-3M melanoma
LOX IMVI melanoma = system: LOX IMVI melanoma
ACHN renal = system: ACHN renal
HOP-92 NSCLC = system: HOP-92 NSCLC
K-562 leukemia = system: K-562 leukemia
RPMI-8226 leukemia = system: RPMI-8226 leukemia
HCT-116 colon = system: HCT-116 colon
COLO 205 colon = system: COLO 205 colon
SK-OV-3 ovarian = system: SK-OV-3 ovarian
UACC-62 melanoma = system: UACC-62 melanoma
HCC-2998 colon = system: HCC-2998 colon
SK-MEL-2 melanoma = system: SK-MEL-2 melanoma

`COc1ccc2c(c1)C(=O)c1c-2c(=O)n(CCCCCCC(=O)NO)c2ccccc12` showed a GI50 (MOLT-4 leukemia) of 139 nM, a TGI (MOLT-4 leukemia) greater than 100000 nM and a GI50 (SF-295 CNS) of 733 nM. It also gave a TGI (SF-295 CNS) of 4850 nM, a GI50 (BT-549 breast) of 2710 nM and a TGI (BT-549 breast) of 42600 nM. The GI50 (786-0 renal) was 1320 nM, the TGI (786-0 renal) was 11500 nM and the GI50 (KM12 colon) was 358 nM. The GI50 (NCI-H226 lung) was 1180 nM, the TGI (NCI-H226 lung) was greater than 100000 nM and the GI50 (IGROV1 ovarian) was 732 nM. For the same compound, the TGI (IGROV1 ovarian) was 12200 nM, the GI50 (EKVX NSCLC) was 700 nM and the TGI (EKVX NSCLC) was greater than 100000 nM. The GI50 (HT29 colon) was 282 nM, the TGI (HT29 colon) was 2750 nM and the GI50 (RXF 393 renal) was 224 nM. It also gave a TGI (RXF 393 renal) of 1770 nM, a GI50 (SNB-75 CNS) of 93 nM and a TGI (SNB-75 CNS) of 13800 nM. The GI50 (SF-539 CNS) was 480 nM, the TGI (SF-539 CNS) was 28700 nM and the GI50 (SW-620 colon) was 130 nM. For the same compound, the TGI (SW-620 colon) was 695 nM, the GI50 (MDA-MB-435) was 197 nM and the TGI (MDA-MB-435) was 2290 nM. The GI50 (OVCAR-5 ovarian) was 527 nM, the TGI (OVCAR-5 ovarian) was 12300 nM and the GI50 (M14 melanoma) was 407 nM. For the same compound, the TGI (M14 melanoma) was 13900 nM, the GI50 (MCF7 breast) was 226 nM and the TGI (MCF7 breast) was 10200 nM. It also gave a GI50 (MALME-3M melanoma) of 202 nM, a TGI (MALME-3M melanoma) of 60900 nM and a GI50 (LOX IMVI melanoma) of 236 nM. For the same compound, the TGI (LOX IMVI melanoma) was 1130 nM, the GI50 (ACHN renal) was 226 nM and the TGI (ACHN renal) was 1700 nM. The GI50 (HOP-92 NSCLC) was 197 nM, the TGI (HOP-92 NSCLC) was 1240 nM and the GI50 (K-562 leukemia) was 260 nM. The TGI (K-562 leukemia) was greater than 100000 nM, the GI50 (RPMI-8226 leukemia) was 259 nM and the TGI (RPMI-8226 leukemia) was greater than 100000 nM. It also gave a GI50 (HCT-116 colon) of 66.4 nM, a TGI (HCT-116 colon) of 1150 nM and a GI50 (COLO 205 colon) of 304 nM. The TGI (COLO 205 colon) was 1710 nM, the GI50 (SK-OV-3 ovarian) was 300 nM and the TGI (SK-OV-3 ovarian) was 2970 nM. For the same compound, the GI50 (UACC-62 melanoma) was 145 nM, the TGI (UACC-62 melanoma) was 1380 nM and the GI50 (HCC-2998 colon) was 398 nM. The TGI (HCC-2998 colon) was 1840 nM, the GI50 (SK-MEL-2 melanoma) was 1230 nM and the TGI (SK-MEL-2 melanoma) was 5900 nM.

From PubChem BioAssay (NCI)
